Assay results from ChEMBL document CHEMBL1157613, “Salicylic acid based small molecule inhibitor for the oncogenic Src homology-2 domain containing protein tyrosine phosphatase-2 (SHP2)” (J Med Chem, 2010).
The source made the active and inactive calls. The calls are words filed in the database; no cut-off is given here.

What was measured:
[1] = biological target: Receptor-type tyrosine-protein phosphatase alpha (Homo sapiens, UniProt P18433); experiment: Inhibition of PTPalpha expressed in Escherichia coli assessed as inhibition of p-nitrophenyl phosphate hydrolysis at pH 7 by spectrophotometry
Chain of Receptor-type tyrosine-protein phosphatase alpha (P18433 whole entry): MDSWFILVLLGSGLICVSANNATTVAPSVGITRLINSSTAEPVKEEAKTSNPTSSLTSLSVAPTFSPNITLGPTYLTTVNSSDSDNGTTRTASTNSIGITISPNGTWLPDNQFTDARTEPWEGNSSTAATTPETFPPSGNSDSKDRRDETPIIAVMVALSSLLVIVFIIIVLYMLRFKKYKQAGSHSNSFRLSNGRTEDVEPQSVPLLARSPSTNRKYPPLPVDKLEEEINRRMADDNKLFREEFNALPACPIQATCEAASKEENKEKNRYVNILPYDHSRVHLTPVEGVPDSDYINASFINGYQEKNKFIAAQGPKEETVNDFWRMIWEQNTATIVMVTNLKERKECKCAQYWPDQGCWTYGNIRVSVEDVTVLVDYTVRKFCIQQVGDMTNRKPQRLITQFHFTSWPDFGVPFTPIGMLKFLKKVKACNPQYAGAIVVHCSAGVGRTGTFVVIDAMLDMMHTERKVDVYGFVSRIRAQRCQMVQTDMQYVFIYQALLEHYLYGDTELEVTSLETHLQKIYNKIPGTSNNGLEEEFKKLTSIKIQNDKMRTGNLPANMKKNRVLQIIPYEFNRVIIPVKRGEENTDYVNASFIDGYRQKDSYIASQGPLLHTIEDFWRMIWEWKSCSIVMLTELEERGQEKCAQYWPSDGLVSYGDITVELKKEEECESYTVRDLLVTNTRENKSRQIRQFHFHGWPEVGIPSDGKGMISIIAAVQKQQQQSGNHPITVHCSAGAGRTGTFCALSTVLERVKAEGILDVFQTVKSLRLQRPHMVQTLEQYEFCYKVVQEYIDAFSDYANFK

[2] = biological target: T1, Tyrosine-protein phosphatase non-receptor type 11 (Mus musculus) (UniProt P35235); experiment: Inhibition of SHP2-dependent ERK1/2 activation in EGF-stimulated mouse NIH/3T3 cells assessed as phosphorylated ERK1/2 level at 10 uM treated for 3 hrs before EGF challenge measured after 60 mins of EGF stimulation by immunoblot analysis; format: cell-based; conditions: NIH3T3
T1 sequence (whole entry): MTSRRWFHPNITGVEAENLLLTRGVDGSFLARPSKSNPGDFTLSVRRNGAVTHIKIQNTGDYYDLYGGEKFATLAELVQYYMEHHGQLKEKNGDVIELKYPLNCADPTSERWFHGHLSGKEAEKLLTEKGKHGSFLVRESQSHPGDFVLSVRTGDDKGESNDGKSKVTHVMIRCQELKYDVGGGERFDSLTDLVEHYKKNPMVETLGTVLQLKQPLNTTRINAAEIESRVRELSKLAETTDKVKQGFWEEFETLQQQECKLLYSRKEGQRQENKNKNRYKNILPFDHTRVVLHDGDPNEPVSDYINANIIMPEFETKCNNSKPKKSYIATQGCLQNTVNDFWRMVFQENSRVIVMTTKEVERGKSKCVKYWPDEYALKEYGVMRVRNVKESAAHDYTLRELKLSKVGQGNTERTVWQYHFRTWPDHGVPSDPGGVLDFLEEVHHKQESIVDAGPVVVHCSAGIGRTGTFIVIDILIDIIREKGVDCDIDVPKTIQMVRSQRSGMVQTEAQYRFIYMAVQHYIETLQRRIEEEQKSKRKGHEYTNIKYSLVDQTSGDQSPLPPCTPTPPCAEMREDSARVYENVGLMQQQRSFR

Mus musculus = species: Mus musculus; experiment: Antiproliferative activity against GM-CSF-stimulated C57/BL6 mouse low density BM-MNC assessed as inhibition of hyperproliferation at 10 uM after 16 hrs by [3H]thymidine incorporation assay; conditions: C57Bl/6
[3] = biological target: T2, Dual specificity protein phosphatase CDC14A (Homo sapiens, UniProt Q9UNH5); experiment: Inhibition of Cdc14A expressed in Escherichia coli assessed as inhibition of p-nitrophenyl phosphate hydrolysis at pH 7 by spectrophotometry
T2 sequence (Q9UNH5 whole entry): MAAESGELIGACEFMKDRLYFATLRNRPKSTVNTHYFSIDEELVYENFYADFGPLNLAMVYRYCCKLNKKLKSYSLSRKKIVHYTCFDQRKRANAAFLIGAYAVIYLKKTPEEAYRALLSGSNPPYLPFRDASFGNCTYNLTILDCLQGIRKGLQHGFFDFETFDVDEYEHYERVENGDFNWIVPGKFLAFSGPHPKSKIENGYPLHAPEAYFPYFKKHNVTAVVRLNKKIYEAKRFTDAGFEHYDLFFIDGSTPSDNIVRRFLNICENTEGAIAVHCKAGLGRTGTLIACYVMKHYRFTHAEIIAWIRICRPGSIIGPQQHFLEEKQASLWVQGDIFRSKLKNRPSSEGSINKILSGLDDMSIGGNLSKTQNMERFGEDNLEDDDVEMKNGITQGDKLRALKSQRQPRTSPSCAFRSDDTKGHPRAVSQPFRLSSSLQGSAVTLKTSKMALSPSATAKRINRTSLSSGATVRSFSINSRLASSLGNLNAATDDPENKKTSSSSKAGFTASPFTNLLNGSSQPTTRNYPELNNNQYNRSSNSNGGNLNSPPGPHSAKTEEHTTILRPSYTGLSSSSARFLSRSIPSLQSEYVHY

[4] = biological target: Dual specificity protein phosphatase 3 (Homo sapiens, UniProt P51452); experiment: Inhibition of VHR expressed in Escherichia coli assessed as inhibition of p-nitrophenyl phosphate hydrolysis at pH 7 by spectrophotometry
Chain of Dual specificity protein phosphatase 3 (P51452 whole entry): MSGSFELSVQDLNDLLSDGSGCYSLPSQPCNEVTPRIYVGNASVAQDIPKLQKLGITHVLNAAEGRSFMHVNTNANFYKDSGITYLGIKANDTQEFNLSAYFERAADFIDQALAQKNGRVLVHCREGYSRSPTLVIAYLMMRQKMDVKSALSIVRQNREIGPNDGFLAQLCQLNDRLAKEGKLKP

[5] = biological target: T3, Tyrosine-protein phosphatase non-receptor type 22 (Homo sapiens, UniProt Q9Y2R2); experiment: Inhibition of Lyp expressed in Escherichia coli assessed as inhibition of p-nitrophenyl phosphate hydrolysis at pH 7 by spectrophotometry
T3 sequence (Q9Y2R2 whole entry): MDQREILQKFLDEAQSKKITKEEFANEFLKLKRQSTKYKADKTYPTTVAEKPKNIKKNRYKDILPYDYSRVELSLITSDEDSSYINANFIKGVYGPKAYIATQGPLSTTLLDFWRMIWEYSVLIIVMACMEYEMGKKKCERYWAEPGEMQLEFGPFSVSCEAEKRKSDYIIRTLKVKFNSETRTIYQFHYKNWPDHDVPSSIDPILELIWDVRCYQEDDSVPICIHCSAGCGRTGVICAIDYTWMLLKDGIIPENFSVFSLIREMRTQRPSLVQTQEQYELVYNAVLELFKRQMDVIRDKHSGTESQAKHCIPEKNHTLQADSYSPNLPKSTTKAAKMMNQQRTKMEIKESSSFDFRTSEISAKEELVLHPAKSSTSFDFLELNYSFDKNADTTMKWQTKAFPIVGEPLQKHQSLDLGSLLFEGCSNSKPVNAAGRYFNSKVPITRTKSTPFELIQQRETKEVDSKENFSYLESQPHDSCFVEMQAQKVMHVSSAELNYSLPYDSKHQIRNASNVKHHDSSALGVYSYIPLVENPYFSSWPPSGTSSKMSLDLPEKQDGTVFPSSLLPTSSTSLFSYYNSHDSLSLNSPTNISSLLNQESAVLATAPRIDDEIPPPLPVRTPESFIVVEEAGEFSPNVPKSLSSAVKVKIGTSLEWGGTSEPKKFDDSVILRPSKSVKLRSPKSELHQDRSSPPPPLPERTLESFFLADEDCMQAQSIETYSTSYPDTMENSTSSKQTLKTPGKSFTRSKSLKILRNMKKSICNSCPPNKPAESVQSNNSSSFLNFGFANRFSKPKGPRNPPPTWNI

[6] = biological target: T4, Tyrosine-protein phosphatase non-receptor type 1 (Homo sapiens, UniProt P18031); experiment: Inhibition of PTP1B expressed in Escherichia coli assessed as inhibition of p-nitrophenyl phosphate hydrolysis at pH 7 by spectrophotometry
T4 sequence (P18031 whole entry): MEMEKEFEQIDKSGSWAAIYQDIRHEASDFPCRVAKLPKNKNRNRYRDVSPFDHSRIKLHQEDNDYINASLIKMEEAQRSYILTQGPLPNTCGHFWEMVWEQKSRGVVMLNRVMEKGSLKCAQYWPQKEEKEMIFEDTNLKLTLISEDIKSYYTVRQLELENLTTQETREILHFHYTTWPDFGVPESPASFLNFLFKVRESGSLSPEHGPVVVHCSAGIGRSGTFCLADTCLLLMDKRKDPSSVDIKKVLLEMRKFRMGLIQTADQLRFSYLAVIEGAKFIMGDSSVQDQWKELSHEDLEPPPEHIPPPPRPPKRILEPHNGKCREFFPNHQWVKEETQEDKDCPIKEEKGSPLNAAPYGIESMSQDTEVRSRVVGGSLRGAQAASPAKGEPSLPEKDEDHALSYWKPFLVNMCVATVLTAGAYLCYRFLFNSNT

IC50 [1]: > 50 µM | inhibition [2]: Active | IC50 [3]: > 50 µM | IC50 [4]: > 50 µM | IC50 [5]: 25 µM | IC50 [6]: 14.3 µM
SMILES: Cn1c(-c2ccccc2)c(-c2cn(CCC(=O)Nc3ccc(-c4ccccc4)cc3)nn2)c2cc(C(=O)O)c(O)cc21
Activity (Mus musculus): Active
